Experimental data taken from patent US20200384014A1, “Pulsed Administration Of Inhaled Nitric Oxide For The Treatment Of Pulmonary Hypertension” (Bellerophon Pulse Technologies LLC, priority 2017, published 2020).

Test system: systolic pulmonary arterial pressure (sPAP) in subjects with PH-COPD
Assay: Phase 2 placebo-controlled clinical study of pulsed iNO in subjects with PH-COPD on LTOT (IK-7002-COPD-201; NCT01728220)
Type: in vivo, human
Parameters: Average Change in sPAP vs Baseline: unit not given beside the values
Conditions: for Average Change in sPAP vs Baseline: PH-COPD subjects on LTOT, echocardiography
Excerpt: This study was a Phase 2, placebo-controlled, double-blind, randomized, two-part, dose-confirming clinical study characterizing the pharmacodynamic effects of pulsed iNO versus placebo in subjects with PH-COPD on LTOT (IK-7002-COPD-201; NCT01728220). The primary outcome of this study was change in systolic pulmonary arterial pressure (sPAP) from baseline after treatment with iNO (measured by 2D transthoracic echocardiography with Doppler). The secondary outcome was the occurrence of a decrease ≥5 mm Hg of partial pressure of oxygen in arterial blood (PaO2) from baseline after treatment with iNO.
Subjects also had tricuspid regurgitation velocity (TRV)≥2.9 m/s as measured by echocardiogram, a post-bronchodilatory forced expiratory volume in 1 second/forced vital capacity (FEV1/FVC)<0.7 and a FEV1<60% predicted. All subjects were at least 40 years old and were former smokers with at least 10 pack-years of tobacco cigarette smoking before study entry. All subjects also had been receiving LTOT for at least 3 months for at least 10 hours per day.
PH-COPD subjects were administered pulsed iNO at a dose of 3, 10, 15, 30 or 75 mcg/IBW kg/hr for at least 20 minutes, or received pulsed placebo (99.999% N2) for at least 20 minutes. The doses of 3 and 10 mcg/kg IBW/hr were administered from a mini-cylinder having 2,440 ppm NO and the doses of 15, 30 and 75 mcg/kg IBW/hr were administered from a mini-cylinder having 4,880 ppm NO.
The NO delivery device delivered gas comprising NO in a pulsatile manner at the beginning of the patient's breath. The minimum pulse volume is limited and for lower doses, can require 1 or more breaths to be skipped to maintain a constant dose in mcg/kg IBW/hr.

SMILES: [N]=O [iNO, nitric oxide]
- Average Change in sPAP vs Baseline (pulsed iNO 10 mcg/kg IBW/hr for at least 20 minutes, N=21): −4.4
- Average Change in sPAP vs Baseline (pulsed iNO 15 mcg/kg IBW/hr for at least 20 minutes, N=21): −2.4
- Average Change in sPAP vs Baseline (pulsed iNO 30 mcg/kg IBW/hr for at least 20 minutes, N=24): −4.5
- Average Change in sPAP vs Baseline (pulsed iNO 75 mcg/kg IBW/hr for at least 20 minutes, N=24): −4.3
- Efficacy (decrease in sPAP), in words (pulsed iNO 3 mcg/kg IBW/hr): ineffective
- Efficacy (decrease in sPAP), in words (pulsed iNO 10 mcg/kg IBW/hr): showed efficacy
- Efficacy (decrease in sPAP), in words (pulsed iNO 15 mcg/kg IBW/hr): did not show efficacy
- Efficacy (decrease in sPAP), in words (pulsed iNO 30 mcg/kg IBW/hr): showed efficacy
- Efficacy (decrease in sPAP), in words (pulsed iNO 75 mcg/kg IBW/hr): showed efficacy
